Source: patent publication US20150224164A1, “TREATMENT OF AUTISM SPECTRUM DISORDERS USING GLYCYL-L-2-METHYLPROLYL-L-GLUMATIC ACID” (Neuren Pharmaceuticals Limited, priority 2013, published 2015)
Where a SMILES comes first, the peptide text is derived from it.

Key:
GFAP-positive astrocytes = experiment: Astrocytosis, GFAP staining in aged brains; type: in vivo, rat; conditions: 18-month old rats; i.p.; 3 d; particularly 0.12 and 12 mg/kg; p<0.05
Procedure: To carry out these studies, tissues were fixed and embedded in paraffin and sections obtained using standard methods. Coronal sections (6 μm) containing the level of the hippocampus were cut and mounted on chrome-alum-coated slides for staining. The sections were deparaffinized in xylene, […] in a series of ethanol and incubated in 0.1 M phosphate buffered saline (PBS). Primary antibodies against glial fibrillary acidic protein (GFAP) and proliferating cell nuclear antigen (PCNA) were used to mark reactive glial cells and cells undergoing apoptosis and proliferation, respectively. For antigen unmasking (caspase-3 and PCNA staining), sections were heated in 10 mM sodium citrate buffer (pH 6.0) for 1 min at high power. All sections were pretreated with 1% H2O2 in 50% methanol for 30 min to quench the endogenous peroxidase activity. […] The number of PCNA positive cells was counted in the subventricular zone and the GFAP positive cells was scored in the cerebral cortex. We also evaluated effects of G-2-MePE on astrocytosis in the CA4 sub-region of the hippocampus in aged rats. […] GFAP-positive cells were counted using a computerised program (Discovery 1). G-2-MePE was administered intra-peritoneally and the numbers of GFAP-positive cells were assessed 3d after the injection. […]

ERK1/2 = experiment: Western blot of ERK and phosphorylated ERK; type: in vivo, mouse; conditions: 100 mg/kg 4 weeks, 12 days after last injection
Procedure: (§1) Phosphorylated Extracellular Signal-Regulated Protein Kinase (ERK) and Protein Kinase B (Akt) expression was measured by Western blot analysis in lymphocytes from fmr1 KO and wild-type animals administered ether vehicle or G-2MePE (100 mg/kg, i.p.; 28 days) treated in the behavior experiments as previously described (Lopez Verrilli et al. 2009). ERK is a classical MAPK signal transduction protein, responsible for growth factor transduction, proliferation, cytokine response to stress and apoptosis. […]
(§2) To conduct the western blots, antibodies were used against Akt ( 1/1000) (Cell Signaling), ERK1/2 ( 1/2000) (Cell Signaling), antiphospho-Akt ( 1/1000) and antiphospho-ERK ( 1/2000) (Cell Signaling). Total Akt and ERK 1/2 protein content (phosphorylated) were evaluated by blotting membranes with antiphospho-Akt ( 1/1000) and antiphospho-ERK antibodies ( 1/2000) (Cell Signaling). Akt or ERK phosphorylation was normalized to protein content in the same sample and expressed as % of change with respect to basal conditions, considering basal levels as 100%. Protein loading was evaluated by stripping and re-blotting membranes with b-actin antibody ( 1/1000) (Sigma Chemical Co.). […]

[1] = system: Tbx1 heterozygous, Cntnap2 knockout, Slc9a6 knockout and fmr1 knockout mouse; experiment: Genetic models of ASD: Tbx1, Cntnap2, Slc9a6, fmr1 mice (Example 17); type: in vivo; conditions: 20 mg/kg/day i.p.
Procedure: Animals in each of the above models are generated in accordance with the methodology described in the cited literature. Wild type equivalents are also obtained for each genetic model. Animals in each model are divided into three groups (n=10 to n=20): placebo treated wild type mice, mutant G-2-MePE-treated group and mutant placebo-treated control group. The treatments are administered intraperitoneally: placebo (saline) or 20 mg/kg/day of G-2-MePE.

Akt = experiment: Western blot of phosphorylated Akt; type: in vivo, mouse; conditions: fmr1 KO; 100 mg/kg 4 weeks; p<0.05
Procedure: as §1, §2

## C[C@@]1(C(=O)N[C@@H](CCC(=O)O)C(=O)O)CCCN1C(=O)CN [Example G-2-MePE, Glycyl-L-2-methylprolyl-L-glutamic acid] (HELM PEPTIDE1{G.[C[C@@]1(C(=O)[*:2])CCCN1[*:1]].E}$$$$V2.0)
GFAP-positive astrocytes
  number of reactive astrocytes (GFAP) in CA4 region of hippocampus: reduced number of reactive astrocytes
ERK1/2; fmr1 KO vs vehicle, p<0.05
  phosphorylated ERK1/2 (pERK): significantly reduced
ERK1/2; fmr1 KO
  total ERK expression levels: increase in ERK expression levels
[1]
  measures associated with the ASD phenotype: significantly improves all measures
Akt
  Akt phosphorylation compared to total Akt: significant reduction in Akt phosphorylation
